Target: Stromelysin-1 (MMP-3) (Homo sapiens) (UniProt P08254)
Assay: Tested for the inhibition of prostromelysin activation with no preincubation period

Sequence of Stromelysin-1 (MMP-3) (Homo sapiens) (P08254 whole entry, looked up): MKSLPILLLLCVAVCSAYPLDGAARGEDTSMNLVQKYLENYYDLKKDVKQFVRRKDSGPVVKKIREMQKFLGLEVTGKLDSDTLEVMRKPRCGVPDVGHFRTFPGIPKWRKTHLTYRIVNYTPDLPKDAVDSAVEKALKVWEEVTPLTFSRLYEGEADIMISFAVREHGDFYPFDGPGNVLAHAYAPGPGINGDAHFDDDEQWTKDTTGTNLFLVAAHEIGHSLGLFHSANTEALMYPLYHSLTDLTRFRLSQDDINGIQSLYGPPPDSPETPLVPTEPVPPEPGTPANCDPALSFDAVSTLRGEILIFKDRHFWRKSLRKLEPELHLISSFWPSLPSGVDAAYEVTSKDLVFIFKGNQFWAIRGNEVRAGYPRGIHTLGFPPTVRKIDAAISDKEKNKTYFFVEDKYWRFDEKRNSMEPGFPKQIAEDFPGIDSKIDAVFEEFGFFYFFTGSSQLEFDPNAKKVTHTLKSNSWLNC

| Compound | IC50 [µM] |
| --- | --- |
| COc1ccc(OC)c(-n2sc3ncccc3c2=O)c1 [2-(2,5-Dimethoxy-phenyl)-isothiazolo[5,4-b]pyridin-3-one] | 53 |
| COc1ccc(-n2sc3ncccc3c2=O)c(OC)c1 [2-(2,4-Dimethoxy-phenyl)-isothiazolo[5,4-b]pyridin-3-one] | 62 |

— BindingDB's records for doi:10.1021/jm00045a012 (Dupont Pharmaceuticals, 1994)
